In this assay the target is alanyl aminopeptidases (APN) (Homo sapiens, UniProt P15144). Nature of the assay: Inhibition of alanyl aminopeptidase enzymatic activity, fluorogenic substrate (Ala)2-rhodamine 110. The format is biochemical. The procedure: The inhibition characteristics measured are referred to as IC-50 values or ID50 values (the latter marked with “*”) for said enzyme. The enzymatic activity was determined by means of the fluorogenic substrate/product (Ala)2-rhodamine 110.

The mark [1] stands for this setting: Table 3, unstarred values, read-out: IC50APN.
Where [2] appears, read: Table 3, starred values = ID50, read-out: ID50 APN (values marked with *).

In patent US20070037752A1, “Novel alanyl-amino peptidase inhibitors for functionally influencing different cells and treating immunological, inflammatory, neuronal, and other diseases” (priority 2003, published 2007) one finds IC50 data, which are given here for 88 compounds.

SMILES strings stand for the structures. Like-named read-outs stand apart in the source and are kept apart here.

Sequence of alanyl aminopeptidases (APN) (P15144 whole entry, species assumed): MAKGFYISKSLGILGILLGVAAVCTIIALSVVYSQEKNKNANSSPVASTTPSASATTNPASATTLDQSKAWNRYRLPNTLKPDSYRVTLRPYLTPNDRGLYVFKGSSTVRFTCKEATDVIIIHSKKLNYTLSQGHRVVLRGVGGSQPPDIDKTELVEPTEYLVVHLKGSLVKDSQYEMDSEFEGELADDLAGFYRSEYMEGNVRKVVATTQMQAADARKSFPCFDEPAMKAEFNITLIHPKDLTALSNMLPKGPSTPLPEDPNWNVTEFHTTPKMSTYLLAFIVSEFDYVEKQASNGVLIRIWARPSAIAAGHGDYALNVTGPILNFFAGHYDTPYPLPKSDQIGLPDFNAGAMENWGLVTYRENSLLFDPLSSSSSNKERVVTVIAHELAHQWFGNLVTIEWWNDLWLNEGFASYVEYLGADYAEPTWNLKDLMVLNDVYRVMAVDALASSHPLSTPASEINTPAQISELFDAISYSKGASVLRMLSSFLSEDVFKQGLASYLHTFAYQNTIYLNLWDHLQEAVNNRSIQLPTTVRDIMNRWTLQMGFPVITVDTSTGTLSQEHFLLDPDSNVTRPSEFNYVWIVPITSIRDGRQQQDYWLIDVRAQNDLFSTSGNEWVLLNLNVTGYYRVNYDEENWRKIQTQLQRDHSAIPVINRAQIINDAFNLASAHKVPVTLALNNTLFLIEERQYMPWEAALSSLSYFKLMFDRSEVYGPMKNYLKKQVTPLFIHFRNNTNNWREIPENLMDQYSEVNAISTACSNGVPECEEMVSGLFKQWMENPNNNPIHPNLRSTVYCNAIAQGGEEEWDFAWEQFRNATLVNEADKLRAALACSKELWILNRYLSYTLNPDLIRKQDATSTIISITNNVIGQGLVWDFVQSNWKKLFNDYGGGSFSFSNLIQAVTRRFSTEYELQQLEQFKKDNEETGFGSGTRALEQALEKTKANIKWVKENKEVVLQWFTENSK

On to `COc1ccc(/C(C)=N/NC(=O)CNC(=O)/C=C\c2ccco2)cc1` [A3.181], for which, under setting [1], the IC50 stood at 29.4 µM.
Still for that read-out and setting: in the case of `O=C(N/N=C/c1ccco1)c1cccc(NC(=O)c2ccccc2)c1` [A3.182] it was 29.5 µM; in that of `CC(=O)Nc1ccc(C(=O)N/N=C/c2ccc(C)o2)cc1` [A3.183], 29.7 µM; in that of `Cc1ccc(/C=N/NC(=O)c2cccc(I)c2)o1` [A3.184], 30 µM.
Same read-out and setting: in the case of `O=C(N/N=C\c1ccco1)c1cnccn1` [A3.185] it was 30.1 µM; in that of `O=C(N/N=C/C=C\c1ccco1)c1ccoc1` [A3.186], 30.1 µM.
On the same count and under the same terms, the same measure for `CC1=C(C#N)C(=O)N=C(O)/C1=C\c1ccc(-c2ccc(Cl)cc2Cl)o1` [A3.187]: 30.3 µM; for `NC(=O)C1CCN(C(=O)/C(=C/c2ccco2)NC(=O)c2ccccc2)CC1` [A3.188]: 30.5 µM.
As to `Cc1cccc(C)c1NC1C(c2ccccc2NC(=O)Nc2ccc(OC(F)(F)F)cc2)N=C2C(C(=O)NCC(C)C)=CC=CN21` (stereo not shown) [A3.190], the IC50 under setting [1] came to 31.1 µM.
Consider `Cc1cc(C(=O)N/N=C/c2ccc(C)o2)[nH]n1` [A3.191], for which the IC50 under setting [1] was 31.8 µM.
Same read-out and setting: in the case of `O=C(CNC(=O)c1ccccc1Br)N/N=C/c1ccoc1` [A3.192] it was 31.9 µM; in that of `CCCOC(=O)c1cc(-c2ccc(/C=C3/C(=O)N(CC(C)O)C(=O)C(C#N)=C3C)o2)ccc1Cl` (stereo not shown) [A3.193], 32 µM; in that of `Cc1ccc(C(=O)N/C(=C\c2ccco2)C(=O)N2CCCN(C)CC2)cc1C` [A3.194], 32.1 µM.
On the same count and under the same terms, in the case of `Nc1nc2nc(-c3ccco3)cc(C(F)(F)F)n2n1` [A3.195] it was 32.1 µM.
For `O=C(CC(=O)N/N=C/c1ccco1)N/N=C/c1ccco1` [A3.196], the IC50 under setting [1] was 32.4 µM.
The same measure, in the same setting: in the case of `CC1=C(C#N)C(O)=NC(=O)/C1=C/c1ccc(-c2ccc(Cl)cc2Cl)o1` [A3.197] it was 32.4 µM; in that of `Cc1ccc(C(=O)N/C(=C/c2ccco2)C(=O)N(C)C)cc1` [A3.198], 32.5 µM; in that of `O=C(N/N=C/c1ccco1)c1ccc(NC(=O)c2ccccc2Cl)cc1` [A3.199], 32.5 µM.
As for `CC(=O)N1CCOC1(C)c1ccc([N+](=O)[O-])cc1` (stereo not shown) [A3.200], the IC50 under setting [1] worked out at 32.8 µM.
On the same count and under the same terms, the same measure for `CCOc1ccc(-c2cc(C(=O)N/N=C/c3ccco3)[nH]n2)cc1OC` [A3.201]: 33.4 µM.
On to `CCOC(=O)C1=C(N)NC2=C(CCCC2)C12C(=O)Nc1ccccc12` (stereo not shown) [A3.202], for which the IC50 under setting [1] turned out to be 33.6 µM.
Regarding `Cc1cccc(C(=O)Nc2ccc(C(=O)N/N=C/c3ccc4c(c3)OCO4)cc2)c1` [A3.203], under setting [2], the IC50 was found to be 33.8 µM.
Regarding `Cc1ccccc1NC(=O)C1C(c2cccs2)C(C#N)=C(SCC(=O)Nc2ccc(Br)cc2)NC1(C)O` (stereo not shown) [A3.204], the IC50 under setting [1] worked out at 33.9 µM.
Same read-out and setting: the same measure for `CC(C)C1N=C(Cc2cccnc2)N(CCCN2CCCC2=O)C1C(=O)NCc1ccccc1` (stereo not shown) [A3.205]: 34 µM.
On the same count and under the same terms, the same measure for `O=C(CCC(=O)Nc1cccc(Cl)c1)N/N=C/c1ccco1` [A3.206]: 34 µM.
On the same count and under the same terms, the same measure for `Cc1ccc(/C=N/NC(=O)c2ccc(F)cc2)o1` [A3.207]: 34.4 µM.
For the compound `CCOC(=O)C1CCN(C(=O)/C(=C/c2ccco2)NC(=O)c2ccc(C)c(C)c2)CC1` [A3.209], the IC50 under setting [1] is 34.5 µM.
On to `O=C(Nc1ccccc1C(=O)N/N=C/c1ccco1)c1ccccc1Cl` [A3.210], for which the IC50 under setting [1] came out at 34.7 µM.
Same read-out and setting: in the case of `COc1ccccc1C(=O)N/N=C/c1ccc(C)o1` [A3.211] it was 34.7 µM.
The same measure, in the same setting: the same measure for `O=C(N/N=C/c1ccco1)c1cccc(I)c1` [A3.212]: 34.7 µM; for `CSc1nnc2n(/N=C/c3ccco3)cnn12` [A3.213]: 34.7 µM.
Same read-out and setting: in the case of `CC(=O)n1cc(/C=C/C=N/NC(=O)CC#N)c2ccccc21` [A3.214] it was 35.5 µM; in that of `COc1ccc(C2NCCS2)cc1Br` (stereo not shown) [A3.215], 35.7 µM; in that of `COc1cc(-c2cc(C(=O)N/N=C/c3ccco3)[nH]n2)ccc1OC(C)C` [A3.216a], 36.1 µM.
On to `Cc1cccc(C(=O)Nc2cccc(C(=O)N/N=C/c3ccc(C)o3)c2)c1` [A3.216b], for which the IC50 under setting [1] came out at 36.2 µM.
For `COc1cc(Br)ccc1OCC(=O)N/N=C(C)/C=C/c1ccco1` [A3.217], the IC50 under setting [1] came out at 36.3 µM.
Consider `Cc1ccc(OCC(=O)N/N=C/c2ccco2)cc1C` [A3.218], for which, under setting [1], the IC50 was found to be 36.3 µM.
The same measure, in the same setting: in the case of `CC(/C=N/NC(=O)C(O)c1ccccc1)=C\c1ccco1` (stereo not shown) [A3.219] it was 36.3 µM; in that of `Cc1c(Cl)cccc1NC(=O)CCC(=O)N/N=C/c1ccco1` [A3.220], 36.6 µM; in that of `CCCOC(=O)c1cc(-c2ccc(/C=C3\C(=O)NC(=O)C(C#N)=C3C)o2)ccc1Cl` [A3.221], 36.8 µM.
Still for that read-out and setting: in the case of `O=[N+]([O-])c1ncn(CN2CCOCC2)n1` [A3.222] it was 36.6 µM; in that of `O=C1C(Cc2ccc3[nH]ccc3c2)NC(=S)N1c1ccccc1` (stereo not shown) [A3.223], 36.9 µM; in that of `CC1CCN(S(=O)(=O)c2ccc3c(c2)C(Cl)(Cl)C(=O)N3)CC1` [A3.224], 37.2 µM.
For `O=C(Nc1ccc(F)cc1)c1ccc([NH+]([O-])O)o1` (stereo not shown) [A3.226], under setting [1], the IC50 is 37.4 µM.
Still for that read-out and setting: the same measure for `O=C(N/N=C/c1ccco1)c1ccccc1` [A3.227]: 37.7 µM.
Same read-out and setting: the same measure for `COc1ccc2ccccc2c1-c1cc(C(=O)N/N=C(\C)c2ccco2)[nH]n1` [A3.228]: 38.2 µM; for `O=C(N/N=C/c1ccco1)c1ccc(O)cc1O` [A3.229]: 38.3 µM.
In the case of `CC(=O)Nc1ccc(C(=O)N/N=C/c2ccco2)cc1` [A3.230], under setting [1], the IC50 is 38.4 µM.
For `O=C(OCC1CCCO1)c1cc([N+](=O)[O-])cc([N+](=O)[O-])c1` (stereo not shown) [A3.231], the IC50 under setting [1] worked out at 39.3 µM.
Consider `O=C(N/N=C/c1ccco1)c1ccn[nH]1` [A3.232], for which the IC50 under setting [1] came out at 40.3 µM.
Still for that read-out and setting: the same measure for `CCOC(=O)c1cc(-c2ccc(/C=C3\C(=O)N(CCCO)C(=O)C(C#N)=C3C)o2)ccc1Cl` [A3.233]: 41 µM.
Consider `O=C(CCC(=O)Nc1ccccc1)N/N=C/c1ccco1` [A3.234], for which the IC50 under setting [1] came out at 41.1 µM.
The same measure, in the same setting: the same measure for `O=[N+]([O-])c1ncn(CCBr)n1` [A3.235]: 41.1 µM; for `COc1ccc(C(=O)/C=C/c2ccc(-c3ccccc3)o2)cc1` [A3.236]: 41.2 µM; for `COc1ccc(OC)c(-c2cc(C(=O)N/N=C/c3ccco3)[nH]n2)c1` [A3.237]: 43.2 µM.
Same read-out and setting: in the case of `O=C(Cn1cnc2ccccc21)N/N=C/c1ccco1` [A3.238] it was 43.3 µM.
Still for that read-out and setting: the same measure for `COC(=O)C(NC(=O)c1ccccc1)(Nc1sc2c(c1C#N)CCC(C(C)(C)C)C2)C(F)(F)F` (stereo not shown) [A3.239]: 43.6 µM; for `O=C(/C=C/c1ccco1)Nc1cccc(C(=O)O)c1` [A3.240]: 44.2 µM.
Turning to `Cc1ccc(/C=N/NC(=O)c2ccc(N3CCCC3=O)cc2)o1` [A3.241], the IC50 under setting [1] stood at 44.2 µM.
The same measure, in the same setting: the same measure for `O=C(N/N=C1/C(=O)Nc2ccc(F)cc21)/C(=C/c1ccccc1)NC(=O)c1ccccc1` [A3.242]: 44.2 µM; for `COc1ccccc1C(=O)N/N=C/c1ccco1` [A3.243]: 44.7 µM; for `CC1CCN(C(=O)/C(=C\c2ccco2)NC(=O)c2ccccc2)CC1` [A3.244]: 45 µM.
On the same count and under the same terms, the same measure for `Cc1ccc(/C=C/C(=O)Nc2ccccc2C(N)=O)o1` [A3.245]: 45 µM.
Same read-out and setting: in the case of `Cc1ccccc1C(=O)Nc1ccc(C(=O)N/N=C/c2ccco2)cc1` [A3.246] it was 45.4 µM.
Take `O=C(N/N=C/c1cccc([N+](=O)[O-])c1)c1ccco1` [A3.247]: under setting [1], the IC50 amounted to 45.4 µM.
On the same count and under the same terms, in the case of `CC(C)Oc1ccc(Br)cc1C(=O)N/N=C/c1ccco1` [A3.248] it was 46.6 µM; in that of `Nc1nonc1-n1nnc(C(=O)N/N=C/c2ccco2)c1-c1ccccc1` [A3.249], 46.6 µM; in that of `CCn1c(/C=C/c2ccco2)nc2ccccc21` [A3.250], 46.6 µM.
The same measure, in the same setting: in the case of `COc1ccc(N(C(C)C(=O)N/N=C/c2ccco2)S(C)(=O)=O)cc1` (stereo not shown) [A3.251] it was 47 µM.
Regarding `CC1=C(C#N)C(=O)N(CC(C)O)C(=O)/C1=C/c1ccc(-c2ccc(Br)cc2)o1` (stereo not shown) [A3.252], the IC50 under setting [2] stood at 47.2 µM.
As to `O=C(COc1ccc2ccccc2c1Br)N/N=C/c1ccco1` [A3.253], under setting [1], the IC50 was 47.3 µM.
Regarding `O=C(O)CC1S/C(=N/N=C/c2ccco2)NC1=O` (stereo not shown) [A3.254], the IC50 under setting [2] is 48.1 µM.
Regarding `Cc1cc(C(=O)N/N=C/c2ccco2)[nH]n1` [A3.255], under setting [1], the IC50 came out at 48.2 µM.
On the same count and under the same terms, the same measure for `CSCCC(Nc1ncnc2c1oc1ccccc12)C(=O)O` (stereo not shown) [A3.256]: 48.4 µM; for `CCOC(=O)C(NC(=O)c1ccc(OC)cc1)(N1CCCC1=O)C(F)(F)F` (stereo not shown) [A3.257]: 48.7 µM; for `O=C(C[N+](=O)[O-])C1=CC2OC=CC2N1` (stereo not shown) [A3.258]: 49.5 µM.
With `O=C(CNC(=O)c1ccccc1)N/N=C/c1ccco1` [A3.259], the IC50 under setting [2] is 49.4 µM.
Turning to `CCOC(=O)c1cc(Br)ccc1-c1ccc(/C=C2\C(=O)N=C(O)C(C#N)=C2C)o1` [A3.260], the IC50 under setting [1] stood at 49.9 µM.
On the same count and under the same terms, in the case of `NC(=S)N/N=C/c1ccco1` [A3.261] it was 50 µM.
The same measure, in the same setting: the same measure for `CCOC(=O)c1ncn(C)c1N` [A3.262]: 50.1 µM.
Same read-out and setting: in the case of `Cc1ccc(/C=N/NC(=O)c2cc(C)oc2C)o1` [A3.263] it was 50.2 µM.
Take `CCCCCCCC(=O)N/N=C/c1ccco1` [A3.264]: the IC50 under setting [1] is 50.3 µM.
Consider `Cc1ccc(/C=N\NC(=O)Cc2cccs2)o1` [A3.265], for which the IC50 under setting [1] is 51.1 µM.
Still for that read-out and setting: in the case of `CC1CCc2c(sc(NC(=O)C(C(F)(F)F)C(F)(F)F)c2C#N)C1` (stereo not shown) [A3.266] it was 51.3 µM.
In the case of `Cc1ccc(Cn2c(SCCC(=O)O)nc3c2c(=O)[nH]c(=O)n3C)cc1` [A3.267], under setting [2], the IC50 turned out to be 53.2 µM.
Consider `CCOC(=O)c1cc(-c2ccc(/C=C3/C(=O)NC(=O)C(C#N)=C3C)o2)ccc1Cl` [A3.268], for which the IC50 under setting [1] was found to be 52.1 µM.
Same read-out and setting: the same measure for `CC(/C=C/c1ccco1)=N\NC(=O)COc1ccc(C(C)(C)C)cc1` [A3.269]: 50 µM; for `CCCOC(=O)c1cc(-c2ccc(/C=C3\C(=O)N(CCO)C(=O)C(C#N)=C3C)o2)ccc1Cl` [A3.270]: 54 µM.
